These results are taken from patent US12673970B2, “Neuroactive steroids and their methods of use” (priority 2020, dated 2026).

One may read the IC50 as the concentration that gives 50% inhibition.

For experiment [1], the target named is GABAA receptor ([35S]-TBPS binding, rat brain cortical membranes). Put plainly: Steroid inhibition of [35S]-TBPS binding. To be noted: 3 nM [35S]-TBPS, in the presence of 5 mM GABA. As for the experimental part:
[35S]-t-Butylbicyclophosphorothionate (TBPS) binding assays using rat brain cortical membranes in the presence of 5 mM GABA has been described (Gee et al, J. Pharmacol. Exp. Ther. 1987, 241, 346-353; Hawkinson et al, Mol. Pharmacol. 1994, 46, 977-985; Lewin, A. H et al., Mol. Pharmacol. 1989, 35, 189-194).
Briefly, cortices are rapidly removed following decapitation of carbon dioxide-anesthetized Sprague-Dawley rats (200-250 g). The cortices are homogenized in 10 volumes of ice-cold 0.32 M sucrose using a glass/teflon homogenizer and centrifuged at 1500×g for 10 min at 4° C. The resultant supernatants are centrifuged at 10,000×g for 20 min at 4° C. to obtain the P2 pellets. The P2 pellets are resuspended in 200 mM NaCl/50 mM Na—K phosphate pH 7.4 buffer and centrifuged at 10,000×g for 10 min at 4° C. This washing procedure is repeated twice and the pellets are resuspended in 10 volumes of buffer. Aliquots ([…]) of the membrane suspensions are incubated with 3 nM [35S]-TBPS and 5 mL aliquots of test drug dissolved in dimethyl sulfoxide (DMSO) (final 0.5%) in the presence of 5 mM GABA. The incubation is brought to a final volume of 1.0 mL with buffer. Nonspecific binding is determined in the presence of […] and ranged from 15 to 25%. Following a 90 min incubation at room temp, the assays are terminated by filtration through glass fiber filters (Schleicher and Schuell No. 32) using a cell harvester (Brandel) and rinsed three times with ice-cold buffer. Filter bound radioactivity is measured by liquid scintillation spectrometry. Non-linear curve fitting of the overall data for each drug averaged for each concentration is done using Prism (GraphPad). […] The concentration of test compound producing 50% inhibition (IC50) of specific binding and the maximal extent of inhibition (Imax) are determined for the individual experiments with the same model used for the overall data and then the means±SEM.s of the individual experiments are calculated.
Various compounds are or can be screened to determine their potential as modulators of [35S]-TBPS binding in vitro. These assays are or can be performed in accordance with the above

Experiment [2] relates to GABAA receptor ([35S]-TBPS binding, rat brain cortical membranes). To be noted: statement on the positive control; cited from earlier work.

Take `C[C@@]1(O)CC[C@H]2[C@@H](CC[C@@H]3[C@@H]2CC[C@]2(C)[C@@H](C(=O)CCn4cc(C#N)cn4)CC[C@@H]32)C1` [Example 1, 1-(3-((3R,5S,8R,9R,10S,13S,14S,17S)-3-hydroxy-3,13-dimethylhexadecahydro-1H-cyclopenta[a]phenanthren-17-yl)-3-oxopropyl)-1H-pyrazole-4-carbonitrile]: in experiment [1], the IC50 is less than 100 nM.

On to `COC[C@@]1(O)CC[C@H]2[C@@H](CC[C@@H]3[C@@H]2CC[C@]2(C)[C@@H](C(=O)CCn4cc(C#N)cn4)CC[C@@H]32)C1` [Example 2, 1-(3-((3R,5S,8R,9R,10S,13S,14S,17S)-3-hydroxy-3-(methoxymethyl)-13-methylhexadecahydro-1H-cyclopenta[a]phenanthren-17-yl)-3-oxopropyl)-1H-pyrazole-4-carbonitrile], for which the half-inhibitory concentration (IC50) in experiment [1] was less than 100 nM. `C[C@@]1(O)CC[C@H]2[C@H](CC[C@@H]3[C@@H]2CC[C@]2(C)[C@@H](C(=O)CCCn4cc(C#N)cn4)CC[C@@H]32)C1` [Example 3, 1-(4-((3R,5R,8R,9R,10S,13S,14S,17S)-3-hydroxy-3,13-dimethylhexadecahydro-1H-cyclopenta[a]phenanthren-17-yl)-4-oxobutyl)-1H-pyrazole-4-carbonitrile]: in experiment [1], the IC50 is less than 100 nM.

As to `C[C@@]1(O)CC[C@H]2[C@H](CC[C@@H]3[C@@H]2CC[C@]2(C)[C@@H](C(=O)CCCCn4cc(C#N)cn4)CC[C@@H]32)C1` [Example 4, 1-(5-((3R,5R,8R,9R,10S,13S,14S,17S)-3-hydroxy-3,13-dimethylhexadecahydro-1H-cyclopenta[a]phenanthren-17-yl)-5-oxopentyl)-1H-pyrazole-4-carbonitrile], in experiment [1], the IC50 is less than 100 nM. The same measure, in the same setting: for `C[C@@]1(O)CC[C@H]2[C@H](CC[C@@H]3[C@@H]2CC[C@]2(C)[C@@H](CC(=O)Cn4cc(C#N)cn4)CC[C@@H]32)C1` [Example 5, 1-(3-((3R,5R,8R,9R,10S,13R,14S,17R)-3-hydroxy-3,13-dimethylhexadecahydro-1H-cyclopenta[a]phenanthren-17-yl)-2-oxopropyl)-1H-pyrazole-4-carbonitrile] the value was 100 to 1000 nM.

On to `CC(C)(C(=O)C[C@H]1CC[C@H]2[C@@H]3CC[C@@H]4C[C@](C)(O)CC[C@@H]4[C@H]3CC[C@]12C)n1cc(C#N)cn1` [Example 7, 1-(4-((3R,5R,8R,9R,10S,13R,14S,17R)-3-hydroxy-3,13-dimethylhexadecahydro-1H-cyclopenta[a]phenanthren-17-yl)-2-methyl-3-oxobutan-2-yl)-1H-pyrazole-4-carbonitrile], for which the IC50 in experiment [1] lay within 100 to 1000 nM. Consider `C[C@H](C(=O)C[C@H]1CC[C@H]2[C@@H]3CC[C@@H]4C[C@](C)(O)CC[C@@H]4[C@H]3CC[C@]12C)n1cc(C#N)cn1` [Example 8, 1-((R)-4-((3R,5R,8R,9R,10S,13R,14S,17R)-3-hydroxy-3,13-dimethylhexadecahydro-1H-cyclopenta[a]phenanthren-17-yl)-3-oxobutan-2-yl)-1H-pyrazole-4-carbonitrile], for which, in experiment [1], the IC50 is 100 to 1000 nM. With `C[C@@H](C(=O)C[C@H]1CC[C@H]2[C@@H]3CC[C@@H]4C[C@](C)(O)CC[C@@H]4[C@H]3CC[C@]12C)n1cc(C#N)cn1` [Example 9, 1-((S)-4-((3R,5R,8R,9R,10S,13R,14S,17R)-3-hydroxy-3,13-dimethylhexadecahydro-1H-cyclopenta[a]phenanthren-17-yl)-3-oxobutan-2-yl)-1H-pyrazole-4-carbonitrile], the IC50 in experiment [1] is 100 to 1000 nM. The same measure, in the same setting: for `C[C@H](C(=O)Cn1cc(C#N)cn1)[C@H]1CC[C@H]2[C@@H]3CC[C@@H]4C[C@](C)(O)CC[C@@H]4[C@H]3CC[C@]12C` [Example 10, 1-((S)-3-((3R,5R,8R,9R,10S,13S,14S,17R)-3-hydroxy-3,13-dimethylhexadecahydro-1H-cyclopenta[a]phenanthren-17-yl)-2-oxobutyl)-1H-pyrazole-4-carbonitrile] the value was less than 100 nM.

Consider `C[C@@H](C(=O)Cn1cc(C#N)cn1)[C@H]1CC[C@H]2[C@@H]3CC[C@@H]4C[C@](C)(O)CC[C@@H]4[C@H]3CC[C@]12C` [Example 11, 1-((R)-3-((3R,5R,8R,9R,10S,13S,14S,17R)-3-hydroxy-3,13-dimethylhexadecahydro-1H-cyclopenta[a]phenanthren-17-yl)-2-oxobutyl)-1H-pyrazole-4-carbonitrile], for which, in experiment [1], the half-maximal inhibitory concentration (IC50) fell in the range of 100 to 1000 nM. Consider `C[C@@]1(O)CC[C@H]2[C@H](CC[C@@H]3[C@@H]2CC[C@]2(C)[C@@H](CC(=O)c4ccc(C#N)cc4)CC[C@@H]32)C1` [Example 12, 4-(2-((3R,5R,8R,9R,10S,13R,14S,17R)-3-hydroxy-3,13-dimethylhexadecahydro-1H-cyclopenta[a]phenanthren-17-yl)acetyl)benzonitrile], for which the IC50 in experiment [1] is less than 100 nM. Still for that read-out and setting: for `COC[C@@]1(O)CC[C@@]2(C)[C@H](CC[C@@H]3[C@@H]2CC[C@]2(C)[C@@H](C(=O)CCn4cc(C#N)cn4)CC[C@@H]32)C1` [Example 13, 1-(3-((3R,5R,8R,9S,10S,13S,14S,17S)-3-hydroxy-3-(methoxymethyl)-10,13-dimethylhexadecahydro-1H-cyclopenta[a]phenanthren-17-yl)-3-oxopropyl)-1H-pyrazole-4-carbonitrile] the value was less than 100 nM. Turning to Picrotoxin, the “inhibition of TBPS binding (positive control)” value in experiment [2] is “robustly inhibit TBPS binding”.
